Measurements from article PMC12730722, “Identification and Functional Characterization of the Leg-Enriched Chemosensory Protein PxylCSP9 in Plutella xylostella (Lepidoptera: Plutellidae)” (Biology, 2025).

Experiments:
P. xylostella [1] = system: P. xylostella; design: key to behavioral effect of plant volatile on P. xylostella (attractive / repellent): Refers to plant volatiles that are attractive to P. xylostella; b: Refers to plant volatiles that are repellent to P. xylostella; conditions: cited from earlier work; for behavioral effect of plant volatile on P. xylostella (attractive / repellent): footnote marks of Table 2, ref 37,45,46,47,48 (a), ref 49,50,51 (b)
PxylCSP9 [2] = biological target: T1, PxylCSP9 (Plutella xylostella, UniProt A0A8S4FJE6); assay: Binding of fluorescent probe Bis-ANS to PxylCSP9 (titration, Scatchard plot); conditions: 1 μM protein, 50 mM Tris-HCl pH 7.4, probe 1 to 10 μM, read-out: dissociation constant of PxylCSP9/Bis-ANS complex
Procedure: To identify the ligands that bind to PxylCSP9, we selected several typical chemical components from the host plants of P. xylostella for fluorescence competitive binding experiments. The purity of all ligands and the fluorescent probe 4,4′-dianilino-1,1′-binaphthyl-5,5′-sulfonate (Bis-ANS) was ≥95%, which was purchased from Aladdin (Shanghai, China) or Sigma-Aldrich (St. Louis, MO, USA.). All the compounds were dissolved individually in chromatography-grade methanol (Aladdin, Shanghai, China) to prepare 1 mM stock solutions. Fluorescence competitive binding assays were performed using an RF-5301 Fluorescence Spectrophotometer (Shimadzu, Kyoto, Japan) with a quartz cuvette of a 1 cm path length. The excitation and emission slit widths were both set to 5 nm. The excitation wavelength of the fluorescent probe was 365 nm, and the emission spectra were recorded from 400 to 580 nm.
The affinity of Bis-ANS for PxylCSP9 was measured by titrating a 1 μM solution of the protein in 50 mM Tris-HCl (pH 7.4) with aliquots of 1 mM Bis-ANS stock solution to final probe concentrations ranging from 1 to 10 μM. In competitive binding assays, the ligand concentrations ranging from 0 to 10 μM were added to a solution containing PxylCSP9 (1 μM) and Bis-ANS (1 μM). […]

P. xylostella [3] = system: P. xylostella; design: method as in doi:10.1111/j.1744-7917.2004.tb00178.x, doi:10.1111/jen.13144, PMID 29474734; conditions: cited from earlier work
PxylCSP9 [4] = biological target: T1, PxylCSP9; assay: Fluorescence competitive binding assay (Bis-ANS probe displacement)
Procedure: The purity of all ligands and the fluorescent probe 4,4′-dianilino-1,1′-binaphthyl-5,5′-sulfonate (Bis-ANS) was ≥95%, which was purchased from Aladdin (Shanghai, China) or Sigma-Aldrich (St. Louis, MO, USA.). All the compounds were dissolved individually in chromatography-grade methanol (Aladdin, Shanghai, China) to prepare 1 mM stock solutions. […] The excitation and emission slit widths were both set to 5 nm. The excitation wavelength of the fluorescent probe was 365 nm, and the emission spectra were recorded from 400 to 580 nm.
In competitive binding assays, the ligand concentrations ranging from 0 to 10 μM were added to a solution containing PxylCSP9 (1 μM) and Bis-ANS (1 μM). All data were analyzed based on the assumptions that the protein was 100% active and that binding followed a 1:1 stoichiometry (protein:ligand) at saturation. The binding curves for Bis-ANS were linearized using a Scatchard plot. The dissociation constants of the competitors were calculated from their corresponding IC50 values using the following equation: Ki = [IC50]/(1 + [Bis-ANS]/KBis-ANS), where IC50 is the ligand concentration that reduces the initial fluorescence intensity of Bis-ANS by half, [Bis-ANS] is the free concentration of Bis-ANS, and KBis-ANS is the dissociation constant of the PxylCSP9/Bis-ANS complex.

[5] = system: certain lepidopteran insects; design: method as in PMID 40195004, doi:10.1023/A:1020990018111, doi:10.1023/A:1020750029362; conditions: cited from earlier work

T1 sequence (A0A8S4FJE6 entry or part of it): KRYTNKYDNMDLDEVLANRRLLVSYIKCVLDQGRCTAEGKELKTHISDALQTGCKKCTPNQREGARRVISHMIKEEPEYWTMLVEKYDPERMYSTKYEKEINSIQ

**Q.** For CCCCCCCCC=O [1-Nonanal], which “behavioral effect of plant volatile on P. xylostella (attractive / repellent)” value (P. xylostella [1]) is on record?
**A.** The value was 1-Nonanal ^a.

**Q.** With CCCC(C)CC(C)C (centres unmarked) [2,4-Dimethylheptane] as the compound, how does the “behavioral effect of plant volatile on P. xylostella (attractive / repellent)” value (P. xylostella [1]) read?
**A.** Its value is 2,4-Dimethylheptane ^b.

**Q.** With CCCCCCCC(C)C [2-Methylnonane] as the compound, how does the “behavioral effect of plant volatile on P. xylostella (attractive / repellent)” value (P. xylostella [1]) read?
**A.** Its value is 2-Methylnonane ^b.

**Q.** For CCC/C=C/C=O [(E)-2-Hexenal], which “behavioral effect of plant volatile on P. xylostella (attractive / repellent)” value (P. xylostella [1]) is on record?
**A.** The value was “(E)-2-Hexenal ^a”.

**Q.** With C=C(C)[C@@H]1CC=C(C)C(=O)C1 [(R)-(-)-Carvone] as the compound, how does the “behavioral effect of plant volatile on P. xylostella (attractive / repellent)” value (P. xylostella [1]) read?
**A.** Its value is “(R)-(-)-Carvone ^b”.

**Q.** Which “feeding and oviposition behaviors in P. xylostella” value (P. xylostella [1]) does the source give for C=CCN=C=S [Allyl isothiocyanate] here?
**A.** Its value is “induce feeding and oviposition behaviors”.

**Q.** For O=S(=O)(O)c1cccc2c(-c3ccc(Nc4ccccc4)c4c(S(=O)(=O)O)cccc34)ccc(Nc3ccccc3)c12 [Bis-ANS, 4,4′-dianilino-1,1′-binaphthyl-5,5′-sulfonate], which Kd (PxylCSP9 [2]) is on record?
**A.** The Kd was 4.86 ± 0.04 µM.

**Q.** What does the source list for C=C(C)C1CC=C(C)CC1 (centres unmarked) [Limonene]?
**A.** EAG response of P. xylostella (P. xylostella [3]): effectively stimulate the EAG response; behavioral avoidance response of P. xylostella (P. xylostella [1]): significantly induce its behavioral avoidance response; oviposition deterrent effects (P. xylostella [1]): oviposition deterrent effects; behavioral effect of plant volatile on P. xylostella (attractive / repellent) (P. xylostella [1]): Limonene ^b

**Q.** With C=CC(C)(O)CCC=C(C)C (centres unmarked) [Linalool] as the compound, how does the “behavioral effect of plant volatile on P. xylostella (attractive / repellent)” value (P. xylostella [1]) read?
**A.** Its value is “Linalool ^b”.

**Q.** For CC(=O)CCC=C(C)C [Methyl heptenone], which IC50 (PxylCSP9 [4]; PxylCSP9 1 μM, Bis-ANS 1 μM, 50 mM Tris-HCl pH 7.4, ligand concentration halving Bis-ANS fluorescence) is on record?
**A.** The IC50 was 20.1 ± 1.98 µM.

**Q.** What about the Ki (PxylCSP9 [4]; calculated from IC50: Ki = [IC50]/(1 + [Bis-ANS]/KBis-ANS)) of the same compound?
**A.** The Ki was 17 µM.

**Q.** With C=CC(=C)CCC=C(C)C [Myrcene] as the compound, how does the “EAG response of P. xylostella” value (P. xylostella [3]) read?
**A.** The value was “effectively stimulate the EAG response”.

**Q.** What about the “behavioral avoidance response of P. xylostella” value (P. xylostella [1]) of the same compound?
**A.** Its value is “significantly induce its behavioral avoidance response”.

**Q.** What about the “behavioral effect of plant volatile on P. xylostella (attractive / repellent)” value (P. xylostella [1]) of the same compound?
**A.** The value was “Myrcene ^b”.

**Q.** For OCCc1ccccc1 [Phenethyl alcohol], which “behavioral effect of plant volatile on P. xylostella (attractive / repellent)” value (P. xylostella [1]) is on record?
**A.** The value was “Phenethyl alcohol ^a”.

**Q.** And the “EAG responses and attractive behaviors” value [5]?
**A.** Its value is “elicit electroantennogram (EAG) responses and attractive behaviors”.

**Q.** Which results are given for CC1=CC=C(C(C)C)CC1 [α-Terpinene]?
**A.** EAG response of P. xylostella (P. xylostella [3]): effectively stimulate the EAG response; behavioral avoidance response of P. xylostella (P. xylostella [1]): significantly induce its behavioral avoidance response; oviposition deterrent effects (P. xylostella [1]): oviposition deterrent effects; behavioral effect of plant volatile on P. xylostella (attractive / repellent) (P. xylostella [1]): α-Terpinene ^b
